biological target: T1, human full-length HSP90 (Homo sapiens, UniProt P08238); test: Fluorescence Polarisation Assay (displacement of fluorescein-labelled probe RBT0045864-FAM); assay type: binding; conditions: Fluorescence Polarisation Assay, activity range
T1 construct: E. coli expressed human full-length HSP90 protein; made in house; host or cells: E. coli
Source text: A Fluorescence Polarization_assay was also employed for the evaluation of some of the compounds of the Examples:
Fluorescence polarization {also known as fluorescence anisotropy} measures the rotation of a fluorescing species in solution, where the larger molecule the more polarized the fluorescence emission.
When the fluorophore is excited with polarized light, the emitted light is also polarized. The molecular size is proportional to the polarization of the fluorescence emission.
Test compound is added to the assay plate, left to equilibrate and the anisotropy measured again. Any change in anisotropy is due to competitive binding of compound to HSP90, thereby releasing probe.
Stored at room temperature. • 3) BSA (bovine serum albumen) 10 mg/ml (New England Biolabs # B9001S) • 4) 20 mM probe in 100 % DMSO stock concentration. Stored in the dark at RT. Working concentration is 200 nM diluted in AR water and stored at 4 °C.
1) Add 100µl 1x buffer to wells 11A and 12A (=FP BLNK) 2) Prepare assay mix - all reagents are kept on ice with a lid on the bucket as the probe is light-sensitive.
This gives 2.5 mM {50x} stock cpd - assuming cpds 20 mM. • 4) Repeat for wells A2 to A10. Control in columns 11 and 12. • 5) Transfer 5 µl from row A to row B- not column 12. Mix well. • 6) Transfer 5 µl from row B to row C. […] Add 2 µl of 100mM standard cpd to wells B12 - H12 {is positive control } • 13)The Z' factor is calculated from zero controls and positive wells.

T1 sequence (P08238 whole entry): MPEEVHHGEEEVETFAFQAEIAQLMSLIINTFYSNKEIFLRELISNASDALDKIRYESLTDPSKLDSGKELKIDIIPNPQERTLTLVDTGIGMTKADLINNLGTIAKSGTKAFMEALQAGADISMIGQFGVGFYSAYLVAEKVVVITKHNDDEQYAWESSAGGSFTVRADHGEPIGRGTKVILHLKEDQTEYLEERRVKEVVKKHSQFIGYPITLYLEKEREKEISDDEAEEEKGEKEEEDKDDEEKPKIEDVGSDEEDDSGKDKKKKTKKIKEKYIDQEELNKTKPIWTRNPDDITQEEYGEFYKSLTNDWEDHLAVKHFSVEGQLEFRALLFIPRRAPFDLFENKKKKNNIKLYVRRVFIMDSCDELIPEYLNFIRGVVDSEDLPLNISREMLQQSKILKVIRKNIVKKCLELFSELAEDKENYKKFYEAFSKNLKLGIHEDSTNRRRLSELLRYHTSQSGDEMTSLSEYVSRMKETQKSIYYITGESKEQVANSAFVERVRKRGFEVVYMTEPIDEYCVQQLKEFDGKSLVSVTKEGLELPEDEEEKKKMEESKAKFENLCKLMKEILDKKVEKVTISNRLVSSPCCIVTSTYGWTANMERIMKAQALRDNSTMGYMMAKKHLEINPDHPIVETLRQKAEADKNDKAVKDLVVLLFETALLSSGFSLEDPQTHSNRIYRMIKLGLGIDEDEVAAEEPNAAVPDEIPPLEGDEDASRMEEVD

Question: For `COc1ccc(-c2c(C)noc2-c2cc(Br)c(O)cc2O)cc1` [Example 2, 4-Bromo-6-[4-(4-methoxy-phenyl)-3-methyl-isoxazol-5-yl]-benzene-1,3-diol], which IC50 is on record?
Answer: The IC50 was less than 10 µM.

same assay, conditions: table names no assay; parent examples tested in fluorescence polarization assay

Question: For `CCNC(=O)c1noc(-c2cc(C(C)C)c(O)cc2O)c1-c1ccc(CNC(C)C)cc1` [Example 78e], which IC50 is on record?
Answer: Its IC50 is less than 10 µM.

Question: Which IC50 does the source give for `CCNC(=O)c1noc(-c2cc(C(C)C)c(O)cc2O)c1-c1ccc(CNC(C)(C)C)cc1` [Example 78l] here?
Answer: The IC50 was less than 10 µM.

Question: Which IC50 does the source give for `CCNC(=O)c1noc(-c2cc(C(C)C)c(O)cc2O)c1-c1ccc(CNCCOC)cc1` [Example 78m] here?
Answer: The IC50 was less than 10 µM.

Question: For `CCNC(=O)c1noc(-c2cc(C(C)C)c(O)cc2O)c1-c1ccc(CNCCN(CC)CC)cc1` [Example 78n], which IC50 is on record?
Answer: The IC50 was less than 10 µM.

Question: For `CCNC(=O)c1noc(-c2cc(C(C)C)c(O)cc2O)c1-c1ccc(CN2CCNCC2)cc1` [Example 78p], which IC50 is on record?
Answer: Its IC50 is less than 10 µM.

Question: With `CCNC(=O)c1noc(-c2cc(C(C)C)c(O)cc2O)c1-c1ccc(CNC2CCNCC2)cc1` [Example 78q] as the molecule, how does the IC50 read?
Answer: The IC50 was less than 10 µM.

Question: Which IC50 does the source give for `CC(C)NC(=O)c1noc(-c2cc(C(C)C)c(O)cc2O)c1-c1ccc(CN2CCOCC2)cc1` [Example 78s] here?
Answer: Its IC50 is less than 10 µM.

Question: For `CC(C)NC(=O)c1noc(-c2cc(C(C)C)c(O)cc2O)c1-c1ccc(CN2CCN(C)CC2)cc1` [Example 78t], which IC50 is on record?
Answer: Its IC50 is less than 10 µM.

Question: Which IC50 does the source give for `CCN(CC)Cc1ccc(-c2c(C(=O)NC(C)C)noc2-c2cc(C(C)C)c(O)cc2O)cc1` [Example 78u] here?
Answer: The IC50 was less than 10 µM.

Question: Which IC50 does the source give for `CC(C)NC(=O)c1noc(-c2cc(C(C)C)c(O)cc2O)c1-c1ccc(CNC2CCCCC2)cc1` [Example 78w] here?
Answer: The IC50 was less than 10 µM.

Question: With `CC(C)NC(=O)c1noc(-c2cc(C(C)C)c(O)cc2O)c1-c1ccc(CNC2CCCC2)cc1` [Example 78y] as the molecule, how does the IC50 read?
Answer: Its IC50 is less than 10 µM.

Question: For `CC(C)NC(=O)c1noc(-c2cc(C(C)C)c(O)cc2O)c1-c1ccc(CNC(C)(C)C)cc1` [Example 78z], which IC50 is on record?
Answer: The IC50 was less than 10 µM.

test system: not listed separately; test: Sulforhodamine B (SRB) growth inhibition / growth arrest assay; assay type: cell-based; conditions: cell line not named
Procedure: A growth inhibition assay was also employed for the evaluation of candidate HSP90 inhibitors: • Assessment of cytotoxicity by Sulforhodamine B (SRB) assay: calculation of 50% inhibitory concentration (IC50).
• 1) Determine cell number by haemocytometer. • 2) Using an 8 channel multipipettor, add 160µl of the cell suspension (3600 cells/well or 2 x 10^4 cells/ml) to each well of a 96-well microtitre plate. • 3) Incubate overnight at 37°C in a CO2 incubator. […]
• 8) Tip off medium into sink and immerse plate slowly into 10% ice cold trichloroacetic acid (TCA). […] Leave for 15 mins. • 12)Wash off unbound SRB stain with four washes of 1% acetic acid. • 13)Dry plates in incubator. • 14)Solubilise SRB using 100µl of 10mM Tris base and put plates on plate shaker for 5 mins. • 15)Determine absorbance at 540nm using a plate reader. Calculate mean absorbance for quadruplicate wells and express as a percentage of value for control, untreated wells. • 16)Plot % absorbance values versus log drug concentration and determine the IC50. […]

Question: For `COc1ccc(-c2c(C)noc2-c2cc(Br)c(O)cc2O)cc1` [Example 2, 4-Bromo-6-[4-(4-methoxy-phenyl)-3-methyl-isoxazol-5-yl]-benzene-1,3-diol], which IC50 is on record?
Answer: Its IC50 is less than 50 µM.

biological target: T2, yeast HSP90 (Saccharomyces cerevisiae, UniProt P02829); test: Malachite Green ATPase assay; assay type: biochemical; conditions: activity range
T2 construct: made in house; host or cells: E. coli
Source text: The intrinsic ATPase activity of HSP90 may be measured using yeast HSP90 as a model system. The assay, based on the use of malachite green for the measurement of inorganic phosphate, was used to test the HSP90 inhibitory activity of some of the compounds of the Examples herein.
Malachite Green ATPase Assay
Chemicals are of the highest purity commercially available and all aqueous solutions are made up in AR water. Because of the need to minimise contamination with inorganic phosphate, precautions should be taken with solutions and apparatus used in the assays. Glassware and pH meters are rinsed with double distilled or deionised water before use and, wherever possible, plastic ware should be used. Gloves are worn for all procedures. • (1) Greiner 384-well (Greiner 781101) or Costar 384-well flat-bottomed polystyrene multiwell plates (VWR). • (2) Assay buffer of (a) 100mM Tris-HCI, pH 7.4, (b) 150mM KCI, (c) 6mM MgCl2. Stored at room temperature. • (3) 0.0812% (w/v) malachite green (M 9636, Sigma Aldrich Ltd., Poole, UK). Stored at room temperature. • (4) 2.32% (w/v) polyvinyl alcohol USP (P 1097, Sigma Aldrich Ltd, Poole, UK) in boiling water (see Comment 1), allowed to cool, and stored at room temperature. • (5) 5.72% (w/v) ammonium molybdate in 6 M hydrochloric acid. Stored at room temperature. • (6) 34% (w/v) sodium citrate. Stored at room temperature. • (7) 100mM ATP, disodium salt, special quality (47699, Sigma Aldrich). Stored at -20°C. • (8) E. coli expressed yeast HSP90 protein, purified >95% (see, e.g., Panaretou et al., 1998) and stored in 50uL aliquots at -80°C.
• 1. Dilute test compounds to 500µM in AR water (DMSO concentration will be 2.5%). Transfer 2.5µl of these compounds directly from the daughter plate to the assay plate, giving a final assay concentration of 100µM. […] Column 1 in the assay plate contains no compound, as a negative control. An additional row with no compound is also used as a background. • 2. Prepare ATP by diluting 100mM stock to 925µM with assay buffer, and aliquot 5µl of diluted ATP to each well including controls (final assay concentration 370µM). • 3. Add 5µl of buffer to background row. • 4. Dilute enzyme preparation to 1.05µM with assay buffer, and aliquot 5µl into each compound well and to the negative control column. • 5. Collect the reagents to the bottom of the well, cover plate with plate seal and incubate overnight at 37degC. • 6. First thing in the morning prepare the Malachite Green Reagent. Add 2parts of Malachite Green Solution, 1 part of Polyvinyl Alcohol Solution, 1 part of Ammonium Molybdate Solution, and 2 parts of AR water. • 7. Invert to mix, and leave for approximately 1 hour until the colour turns from brown to golden yellow. • 8. Add 40µl of Malachite Green Reagent to each well, allow 5 mins for colour to develop. • 9. Add 5µl of Sodium Citrate Reagent to each well (see comment 2) • 10. Re-cover with plate seal and shake on plate shaker for at least 15 mins. • 11. Measure Absorbance at 620nm using a suitable plate reader (e.g. Victor, Perkin Elmer Life Sciences, Milton Keynes, UK). Under these conditions, the control absorbance is 0.9 to 1.4, and the background is 0.2-0.35 giving a signal to noise ratio of -12. The Z' factor calculated from data obtained using these conditions is between 0.6 and 0.9.
• (1) The polyvinyl alcohol dissolves in boiling water with difficulty and stirring for 2-3 h is required. • (2) The time interval between addition of the malachite green reagent and the sodium citrate should be kept as short as possible in order to reduce the non-enzymatic hydrolysis of ATP. Once the sodium citrate is added, the colour is stable for up to 4 h at room temperature. • (3) Compounds can be added to the assay plates using a Biomek FX Robot (Beckman Coulter). […]

T2 sequence (P02829 whole entry): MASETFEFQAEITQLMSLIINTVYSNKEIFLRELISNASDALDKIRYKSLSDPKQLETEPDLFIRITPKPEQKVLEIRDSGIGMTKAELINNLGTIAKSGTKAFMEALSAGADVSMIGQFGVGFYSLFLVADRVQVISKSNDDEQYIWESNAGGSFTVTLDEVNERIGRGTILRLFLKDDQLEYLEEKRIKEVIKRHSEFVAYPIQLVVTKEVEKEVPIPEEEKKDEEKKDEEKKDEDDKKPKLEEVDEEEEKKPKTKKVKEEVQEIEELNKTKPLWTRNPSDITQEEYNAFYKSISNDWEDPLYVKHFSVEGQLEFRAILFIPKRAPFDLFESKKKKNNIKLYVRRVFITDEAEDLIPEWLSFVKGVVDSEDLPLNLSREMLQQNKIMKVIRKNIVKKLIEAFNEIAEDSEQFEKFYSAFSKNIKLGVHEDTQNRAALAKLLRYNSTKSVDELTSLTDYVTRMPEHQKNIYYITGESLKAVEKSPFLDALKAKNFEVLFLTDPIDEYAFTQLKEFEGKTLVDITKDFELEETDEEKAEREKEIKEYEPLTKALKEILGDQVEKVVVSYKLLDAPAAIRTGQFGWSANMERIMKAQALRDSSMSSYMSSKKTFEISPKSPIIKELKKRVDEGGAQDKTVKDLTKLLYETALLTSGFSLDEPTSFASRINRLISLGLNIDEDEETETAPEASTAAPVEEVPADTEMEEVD

Question: For `Cc1noc(-c2ccc(O)cc2O)c1-c1ccc2c(c1)OCCO2` [Example 5], which IC50 is on record?
Answer: Its IC50 is greater than 50 µM.

Question: With `Oc1ccc(Cl)cc1-c1oncc1-c1ccc2c(c1)OCCO2` [Example 6] as the molecule, how does the IC50 read?
Answer: The IC50 was greater than 50 µM.

Question: For `Oc1ccccc1-c1oncc1-c1ccc2c(c1)OCCO2` [Example 7], which IC50 is on record?
Answer: Its IC50 is greater than 50 µM.

Question: Which IC50 does the source give for `COc1ccc(-c2cnoc2-c2cc(Cl)c(O)cc2O)cc1OC` [Example 8] here?
Answer: Its IC50 is greater than 50 µM.

Question: With `Cc1noc(-c2ccc(O)cc2O)c1-c1ccc(F)cc1` [Example 9] as the molecule, how does the IC50 read?
Answer: The IC50 was less than 50 µM.

Question: For `Cc1noc(-c2cc(Cl)c(O)cc2O)c1-c1ccccc1` [Example 10], which IC50 is on record?
Answer: The IC50 was less than 50 µM.

Question: For `CCc1cc(-c2oncc2-c2ccc(OC)c(OC)c2)c(O)cc1O` [Example 11], which IC50 is on record?
Answer: The IC50 was less than 50 µM.

Question: For `COc1ccc(-c2c(C)noc2-c2cc(-c3cccnc3)c(O)cc2O)cc1` [Example 12], which IC50 is on record?
Answer: The IC50 was greater than 50 µM.

Question: For `Oc1cc(O)c(-c2oncc2-c2ccc(Br)cc2)cc1Cl` [Example 12a], which IC50 is on record?
Answer: Its IC50 is less than 50 µM.

Question: Which IC50 does the source give for `Cc1cc(O)cc(O)c1-c1oncc1-c1csc(-c2ccccc2)n1` [Example 12c] here?
Answer: Its IC50 is less than 50 µM.

Question: With `Cc1cc(O)cc(O)c1-c1onc(C(F)(F)F)c1-c1cscn1` [Example 12d] as the molecule, how does the IC50 read?
Answer: The IC50 was less than 50 µM.

Question: With `COc1ccc(-c2c(C)noc2-c2cc(C=O)c(O)cc2O)cc1` [Example 17] as the molecule, how does the IC50 read?
Answer: The IC50 was greater than 50 µM.

Question: Which IC50 does the source give for `COc1ccc(-c2c(C)noc2-c2cc(C(=S)Nc3ccccc3)c(O)cc2O)cc1` [Example 18] here?
Answer: The IC50 was greater than 50 µM.

Question: With `COc1ccc(-c2c(C)noc2-c2cc(C(=O)Nc3ccccc3OC)c(O)cc2O)cc1` [Example 19] as the molecule, how does the IC50 read?
Answer: Its IC50 is less than 50 µM.

Question: With `COc1ccc(-c2c(C)noc2-c2cc(C(OC)c3ccccc3)c(O)cc2O)cc1` (stereo not drawn) [Example 20] as the molecule, how does the IC50 read?
Answer: Its IC50 is less than 50 µM.

Question: With `CCCCCc1noc(-c2ccc(O)cc2O)c1-c1ccc(OC)cc1` [Example 21] as the molecule, how does the IC50 read?
Answer: Its IC50 is less than 50 µM.

— patent EP1611112B1, “ISOXAZOLE COMPOUNDS AS INHIBITORS OF HEAT SHOCK PROTEINS” (Vernalis (Cambridge) Limited, priority 2003, dated 2004)
